≈ marks a conversion by molar mass, not a printed value.
Experiment: solubility in aqueous buffer
Format: physicochemical
Conditions: aqueous buffer pH 7.4, room temperature
Method: Enantiomerically pure compound (I) has low solubility in aqueous solution. In aqueous buffer pH 7.4 the solubility measured at room temperature is about 0.01 mg/ml. Poor solubility typically leads to poor oral bioavailability, fed/fasted variations in bioavailability, cumbersome and inconvenient dosage forms, and may necessitate the use of harsh solubilising agents that are associated with adverse side effects.

solubility: ~10 µg/mL (≈ 21.7 µM)
SMILES: CCOc1cc(C(CS(C)(=O)=O)N2C(=O)c3cccc(NC(C)=O)c3C2=O)ccc1OC (stereo not shown) [compound (I), N-[2-[1-(3-ethoxy-4-methoxyphenyl)-2-(methylsulfonyl)ethyl]-1,3-dioxo-2,3-dihydro-1H-isoindol-4-yl]acetamide]
